Measurements from paper PMC9229919, “4-Aminoquinoline-Based Adamantanes as Potential Anticholinesterase Agents in Symptomatic Treatment of Alzheimer’s Disease” (Pharmaceutics, 2022).
Read-outs that look alike come from different tables or passages of the source.

Legend:
recombinant human AChE = molecular target: T1, recombinant human AChE (Homo sapiens, UniProt P22303); assay: biochemical; assay type: biochemical; settings: for IS: IS = Ki(BChE)/Ki(AChE), IS > 1 selective to AChE
T1 construct: gift of Dr Florian Nachon (Armed Forces Biomedical Research Institute, Brétigny-sur-Orge, France)
T1 sequence (P22303 32-614): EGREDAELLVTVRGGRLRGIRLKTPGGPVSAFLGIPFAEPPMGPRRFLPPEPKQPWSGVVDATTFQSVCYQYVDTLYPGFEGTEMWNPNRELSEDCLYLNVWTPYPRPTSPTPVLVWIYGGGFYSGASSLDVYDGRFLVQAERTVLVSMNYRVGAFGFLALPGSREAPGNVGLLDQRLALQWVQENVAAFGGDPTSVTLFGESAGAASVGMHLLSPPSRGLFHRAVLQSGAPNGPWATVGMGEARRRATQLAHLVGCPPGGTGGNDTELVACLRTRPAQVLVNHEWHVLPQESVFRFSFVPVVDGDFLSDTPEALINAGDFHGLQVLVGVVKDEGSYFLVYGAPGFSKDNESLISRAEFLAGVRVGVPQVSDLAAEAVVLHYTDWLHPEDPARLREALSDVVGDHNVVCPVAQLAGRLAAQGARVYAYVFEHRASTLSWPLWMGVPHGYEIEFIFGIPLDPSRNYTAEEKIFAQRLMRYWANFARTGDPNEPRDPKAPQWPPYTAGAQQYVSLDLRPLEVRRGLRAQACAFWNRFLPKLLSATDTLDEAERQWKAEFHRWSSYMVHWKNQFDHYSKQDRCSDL
Description: (§1) Acetylthiocholine (ATCh) and 5,5′-dithiobis(2-nitrobenzoic acid) (DTNB) were purchased from Sigma-Aldrich, St. Louis, MO, USA. ATCh was dissolved in water and DTNB in 0.1 M sodium phosphate buffer (pH 7.4). The 4-aminoquinilines were dissolved in DMSO and all further dilutions were made in water.
(§2) The sources of AChE and BChE were purified human BChE and recombinant human AChE that was kindly provided by Dr Florian Nachon (Département de Toxicologie, Armed Forces Biomedical Research Institute, Brétigny-sur-Orge, France). […] The enzymes were diluted in sodium phosphate buffer 0.1 M (pH 7.4) containing 0.1% BSA.
(§3) Enzyme activities were measured spectrophotometrically using a slightly modified Ellman method, as described earlier. […] At least three inhibitor concentrations for each substrate concentration were used in at least three experiments. The apparent inhibition constant (Ki,app) was calculated using the Hunter–Downs Equation and linear regression analysis:(1) Ki,app=vi·i/v0−vi=Ki+Ki/KS·s where the y-intercept determines the enzyme-inhibitor dissociation constant (Ki), while the x-intercept determines the enzyme-substrate dissociation constant, KS.
(§4) The Hunter–Downs Equation was used under the assumption that the substrate, due to relatively low concentrations used in experiments, would bind only to the catalytic site of the enzymes, while the inhibitors would bind to both CAS and/or PAs. This allowed the type of inhibition to be determined from Ki,app vs. substrate concentration ([S]) dependency on Hunter–Downs plot.
(§5) The final content of DMSO in the measurements was up to 0.2%. […] The measurements were performed at 25 °C on a Tecan Infinite M200Pro plate reader (Tecan Austria GmbH, Salzburg, Austria).

purified human BChE = molecular target: T2, purified human BChE (Homo sapiens, UniProt P06276); assay: biochemical; assay type: biochemical
T2 construct: possibly also a gift of Dr Florian Nachon (the sentence is ambiguous)
T2 sequence (P06276 29-602): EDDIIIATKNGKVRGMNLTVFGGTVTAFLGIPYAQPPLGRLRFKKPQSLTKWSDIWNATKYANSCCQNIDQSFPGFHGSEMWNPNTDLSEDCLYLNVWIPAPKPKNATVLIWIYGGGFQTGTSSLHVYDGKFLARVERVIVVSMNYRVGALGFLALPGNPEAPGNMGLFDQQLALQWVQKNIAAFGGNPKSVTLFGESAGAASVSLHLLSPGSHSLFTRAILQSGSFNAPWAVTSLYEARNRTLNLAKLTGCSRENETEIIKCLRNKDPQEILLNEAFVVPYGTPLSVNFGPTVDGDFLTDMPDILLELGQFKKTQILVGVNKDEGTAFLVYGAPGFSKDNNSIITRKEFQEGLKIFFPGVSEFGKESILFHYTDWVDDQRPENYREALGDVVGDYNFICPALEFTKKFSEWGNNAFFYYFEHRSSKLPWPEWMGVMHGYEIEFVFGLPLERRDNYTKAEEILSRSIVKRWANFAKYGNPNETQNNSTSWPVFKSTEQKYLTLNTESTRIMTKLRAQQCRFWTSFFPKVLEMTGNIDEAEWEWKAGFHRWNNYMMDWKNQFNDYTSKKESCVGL
Description: as §1, §2, §3, §4, §5

[1] = Ferric reducing antioxidant power (FRAP) assay; settings: mean ± standard error of three experiments;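 further: expressed as µM Fe2+ equivalents from an FeSO4·7H2O standard curve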
Description: . All the chemicals were purchased from Sigma-Aldrich (St. Louis, MO, USA), except for tripyridyltriazine (TPTZ) (Fluka, Buchs, Switzerland) and FeCl3 (Kemika, Zagreb, Croatia). The FRAP assay was assessed according to Benzie and Strain [53] with slight procedure adjustments for 96-well microplates. The method is based on the reduction of the ferric-tripyridyltriazine (Fe^3+-TPTZ) complex to ferrous tripyridyltriazine (Fe^2+-TPTZ) by the action of electron-donating compounds at a low pH. Briefly, the FRAP reagent was prepared by mixing acetate buffer (300 mM, pH 3.6), a solution of 10 mM TPTZ in 40 mM HCl, and 20 mM FeCl3 at 10:1:1 (v/v/v). Then, 240 μL of FRAP reagent and 10 μL of sample solution were added to a 96-well plate and incubated at 37 °C for 60 min. The absorbance was measured at 593 nm using a microplate reader (Infinite M200PRO, Tecan Austria GmbH, Salzburg, Austria) against a blank. The reducing capacity was determined for 10 and 100 µM compound concentrations. […]. All measurements were performed in three independent experiments. FRAP values, denominating the reduction of ferric-tripyridyltriazine (Fe^3+-TPTZ) to ferrous tripyridyltriazine (Fe^2+-TPTZ) by 4-aminoquinolines were calculated based on a standard curve obtained using […].

[2] = Reverse-phase thin-layer chromatographic lipophilicity (RF, RM0); assay type: physicochemical; settings: for RM0: intercept of RM = RM0 + bC; for b: slope of RM = RM0 + bC; for RF, Methanol/Water/Hydrochloric acid (conc.), mobile phase I / RF, Dioxane/Water/Hydrochloric acid (conc.), mobile phase II / RF, Methanol/Water/Hydrochloric acid (conc.), mobile phase II / RF, Acetone/Water/Hydrochloric acid (conc.), mobile phase III / RF, Dioxane/Water/Hydrochloric acid (conc.), mobile phase III / RF, Methanol/Water/Hydrochloric acid (conc.), mobile phase III / RF, Dioxane/Water/Hydrochloric acid (conc.), mobile phase IV / RF, Acetone/Water/Hydrochloric acid (conc.), mobile phase IV / RF, Methanol/Water/Hydrochloric acid (conc.), mobile phase IV / RF, Acetone/Water/Hydrochloric acid (conc.), mobile phase IX / RF, Methanol/Water/Hydrochloric acid (conc.), mobile phase IX / RF, Dioxane/Water/Hydrochloric acid (conc.), mobile phase V / RF, Acetone/Water/Hydrochloric acid (conc.), mobile phase V / RF, Methanol/Water/Hydrochloric acid (conc.), mobile phase V / RF, Dioxane/Water/Hydrochloric acid (conc.), mobile phase VI / RF, Acetone/Water/Hydrochloric acid (conc.), mobile phase VI / RF, Methanol/Water/Hydrochloric acid (conc.), mobile phase VI / RF, Acetone/Water/Hydrochloric acid (conc.), mobile phase VII / RF, Methanol/Water/Hydrochloric acid (conc.), mobile phase VII / RF, Acetone/Water/Hydrochloric acid (conc.), mobile phase VIII / RF, Methanol/Water/Hydrochloric acid (conc.), mobile phase VIII / RF, Acetone/Water/Hydrochloric acid (conc.), mobile phase I / RF, Dioxane/Water/Hydrochloric acid (conc.), mobile phase I / RF, Acetone/Water/Hydrochloric acid (conc.), mobile phase II: RP-18 silica; for RF, Methanol/Water/Hydrochloric acid (conc.), mobile phase I: I = 90%MeOH/5%H2O/5%HCl; for RF, Dioxane/Water/Hydrochloric acid (conc.), mobile phase II: II = 80%Dioxane/15%H2O/5%HCl; for RF, Methanol/Water/Hydrochloric acid (conc.), mobile phase II: II = 85%MeOH/10%H2O/5%HCl; for RF, Acetone/Water/Hydrochloric acid (conc.), mobile phase III: III = 70%AC/25%H2O/5%HCl; for RF, Dioxane/Water/Hydrochloric acid (conc.), mobile phase III: III = 70%Dioxane/25%H2O/5%HCl; for RF, Methanol/Water/Hydrochloric acid (conc.), mobile phase III: III = 80%MeOH/15%H2O/5%HCl; for RF, Dioxane/Water/Hydrochloric acid (conc.), mobile phase IV: IV = 60%Dioxane/35%H2O/5%HCl; for RF, Acetone/Water/Hydrochloric acid (conc.), mobile phase IV: IV = 65%AC/30%H2O/5%HCl; for RF, Methanol/Water/Hydrochloric acid (conc.), mobile phase IV: IV = 75%MeOH/20%H2O/5%HCl; for RF, Acetone/Water/Hydrochloric acid (conc.), mobile phase IX: IX = 40%AC/55%H2O/5%HCl; for RF, Methanol/Water/Hydrochloric acid (conc.), mobile phase IX: IX = 50%MeOH/45%H2O/5%HCl; for RF, Dioxane/Water/Hydrochloric acid (conc.), mobile phase V: V = 50%Dioxane/45%H2O/5%HCl; for RF, Acetone/Water/Hydrochloric acid (conc.), mobile phase V: V = 60%AC/35%H2O/5%HCl; for RF, Methanol/Water/Hydrochloric acid (conc.), mobile phase V: V = 70%MeOH/25%H2O/5%HCl; for RF, Dioxane/Water/Hydrochloric acid (conc.), mobile phase VI: VI = 40%Dioxane/55%H2O/5%HCl; for RF, Acetone/Water/Hydrochloric acid (conc.), mobile phase VI: VI = 55%AC/40%H2O/5%HCl; for RF, Methanol/Water/Hydrochloric acid (conc.), mobile phase VI: VI = 65%MeOH/30%H2O/5%HCl; for RF, Acetone/Water/Hydrochloric acid (conc.), mobile phase VII: VII = 50%AC/45%H2O/5%HCl; for RF, Methanol/Water/Hydrochloric acid (conc.), mobile phase VII: VII = 60%MeOH/35%H2O/5%HCl; for RF, Acetone/Water/Hydrochloric acid (conc.), mobile phase VIII: VIII = 45%AC/50%H2O/5%HCl; for RF, Methanol/Water/Hydrochloric acid (conc.), mobile phase VIII: VIII = 55%MeOH/40%H2O/5%HCl; for RF, Acetone/Water/Hydrochloric acid (conc.), mobile phase I: I = 80%AC/15%H2O/5%HCl; for RF, Dioxane/Water/Hydrochloric acid (conc.), mobile phase I: I = 90%Dioxane/5%H2O/5%HCl; for RF, Acetone/Water/Hydrochloric acid (conc.), mobile phase II: II = 75%AC/20%H2O/5%HCl
Description: Chromatographic determination of lipophilicity
Merck, Darmstadt, Germany). The mobile phase contained organic modifier (methanol, acetone or dioxane), water and hydrochloric acid.
Methanol was varied in the range […]
with an increment of 10%. […]
before chromatogram development. The solvent developing distance was 4.5 cm. Detection of […]
All experiments were performed at ambient temperature (22±2 °C). Retention parameters were calculated as previously described. […]

[3] = log (Ki/µM AChE), read-out: Y Measured 1 log(ki)Ache (converted)
[4] = ± standard error, 25 °C, ATCh substrate, read-out: Ki AChE
[5] = logarithm of Ki in µM, BChE, dependent variable of the QSAR model, read-out: Y Measured 2 log(ki)Bche, log (Ki/µM BChE) (converted)
[6] = ± standard error, 25 °C, ATCh substrate, read-out: Ki BChE
[7] = Acetone/Water/Hydrochloric acid (conc.)
[8] = Dioxane/Water/Hydrochloric acid (conc.)
[9] = Methanol/Water/Hydrochloric acid (conc.)

Compound	IS (recombinant human AChE)	Ki (recombinant human AChE; [4]) [µM]	Ki (purified human BChE; [6]) [µM]	FRAP ([1]; 10 µM compound) [µM]	FRAP ([1]; 100 µM compound) [µM]	RM0 [2, 7]	b [2, 7]	RM0 [2, 8]	b [2, 8]	RM0 [2, 9]	b [2, 9]	RF, Methanol/Water/Hydrochloric acid (conc.), mobile phase I [2]	RF, Dioxane/Water/Hydrochloric acid (conc.), mobile phase II [2]	RF, Methanol/Water/Hydrochloric acid (conc.), mobile phase II [2]	RF, Acetone/Water/Hydrochloric acid (conc.), mobile phase III [2]	RF, Dioxane/Water/Hydrochloric acid (conc.), mobile phase III [2]	RF, Methanol/Water/Hydrochloric acid (conc.), mobile phase III [2]	RF, Dioxane/Water/Hydrochloric acid (conc.), mobile phase IV [2]	RF, Acetone/Water/Hydrochloric acid (conc.), mobile phase IV [2]	RF, Methanol/Water/Hydrochloric acid (conc.), mobile phase IV [2]	also measured
Clc1ccc2c(NCCNCCC34CC5CC(CC(C5)C3)C4)ccnc2c1 [Compound 8]	0.6	1.6 ± 0.1	0.92 ± 0.07	33 ± 12	62 ± 7	2.227	3.421	1.144	2.1084	2.713	3.446	0.69	0.74	0.63	0.55	0.68	0.45	0.66	0.5	0.47	Ki (recombinant human AChE; [3]): 1.6 µM; Ki (purified human BChE; [5]): 0.92 µM; RF, Acetone/Water/Hydrochloric acid (conc.), mobile phase IX [2]: 0.08; RF, Methanol/Water/Hydrochloric acid (conc.), mobile phase IX [2]: 0.08; RF, Dioxane/Water/Hydrochloric acid (conc.), mobile phase V [2]: 0.47; RF, Acetone/Water/Hydrochloric acid (conc.), mobile phase V [2]: 0.39; RF, Methanol/Water/Hydrochloric acid (conc.), mobile phase V [2]: 0.39; RF, Dioxane/Water/Hydrochloric acid (conc.), mobile phase VI [2]: 0.28; RF, Acetone/Water/Hydrochloric acid (conc.), mobile phase VI [2]: 0.34; RF, Methanol/Water/Hydrochloric acid (conc.), mobile phase VI [2]: 0.28; RF, Acetone/Water/Hydrochloric acid (conc.), mobile phase VII [2]: 0.29; RF, Methanol/Water/Hydrochloric acid (conc.), mobile phase VII [2]: 0.18; RF, Acetone/Water/Hydrochloric acid (conc.), mobile phase VIII [2]: 0.21; RF, Methanol/Water/Hydrochloric acid (conc.), mobile phase VIII [2]: 0.13
Clc1ccc2c(NCCN(CCC34CC5CC(CC(C5)C3)C4)CCC34CC5CC(CC(C5)C3)C4)ccnc2c1 [Compound 9]	0.3	5.2 ± 0.2	1.5 ± 0.2	3.4 ± 0.0	29 ± 6	3.559	4.683	2.268	3.179	5.446	5.91	0.44	0.65	0.31	0.33	0.55	0.11	0.42	0.28	0.1	Ki (recombinant human AChE; [3]): 5.2 µM; Ki (purified human BChE; [5]): 1.5 µM; RF, Acetone/Water/Hydrochloric acid (conc.), mobile phase I [2]: 0.58; RF, Dioxane/Water/Hydrochloric acid (conc.), mobile phase I [2]: 0.75; RF, Acetone/Water/Hydrochloric acid (conc.), mobile phase II [2]: 0.5; RF, Acetone/Water/Hydrochloric acid (conc.), mobile phase IX [2]: 0; RF, Methanol/Water/Hydrochloric acid (conc.), mobile phase IX [2]: 0; RF, Dioxane/Water/Hydrochloric acid (conc.), mobile phase V [2]: 0.11; RF, Acetone/Water/Hydrochloric acid (conc.), mobile phase V [2]: 0.13; RF, Methanol/Water/Hydrochloric acid (conc.), mobile phase V [2]: 0.05; RF, Dioxane/Water/Hydrochloric acid (conc.), mobile phase VI [2]: 0; RF, Acetone/Water/Hydrochloric acid (conc.), mobile phase VI [2]: 0.09; RF, Methanol/Water/Hydrochloric acid (conc.), mobile phase VI [2]: 0.01; RF, Acetone/Water/Hydrochloric acid (conc.), mobile phase VII [2]: 0; RF, Methanol/Water/Hydrochloric acid (conc.), mobile phase VII [2]: 0; RF, Acetone/Water/Hydrochloric acid (conc.), mobile phase VIII [2]: 0; RF, Methanol/Water/Hydrochloric acid (conc.), mobile phase VIII [2]: 0
Clc1ccc2c(NCCCCN(CCC34CC5CC(CC(C5)C3)C4)CCC34CC5CC(CC(C5)C3)C4)ccnc2c1 [Compound 10]	0.4	2.4 ± 0.2	1 ± 0.1	13 ± 4	90 ± 6	3.647	4.824	1.984	2.852	5.456	5.91	0.44	0.65	0.31	0.33	0.59	0.1	0.47	0.28	0.1	RF, Acetone/Water/Hydrochloric acid (conc.), mobile phase I [2]: 0.59; RF, Dioxane/Water/Hydrochloric acid (conc.), mobile phase I [2]: 0.75; RF, Acetone/Water/Hydrochloric acid (conc.), mobile phase II [2]: 0.52; RF, Acetone/Water/Hydrochloric acid (conc.), mobile phase IX [2]: 0; RF, Methanol/Water/Hydrochloric acid (conc.), mobile phase IX [2]: 0; RF, Dioxane/Water/Hydrochloric acid (conc.), mobile phase V [2]: 0.14; RF, Acetone/Water/Hydrochloric acid (conc.), mobile phase V [2]: 0.13; RF, Methanol/Water/Hydrochloric acid (conc.), mobile phase V [2]: 0.05; RF, Dioxane/Water/Hydrochloric acid (conc.), mobile phase VI [2]: 0; RF, Acetone/Water/Hydrochloric acid (conc.), mobile phase VI [2]: 0.09; RF, Methanol/Water/Hydrochloric acid (conc.), mobile phase VI [2]: 0.01; RF, Acetone/Water/Hydrochloric acid (conc.), mobile phase VII [2]: 0; RF, Methanol/Water/Hydrochloric acid (conc.), mobile phase VII [2]: 0; RF, Acetone/Water/Hydrochloric acid (conc.), mobile phase VIII [2]: 0; RF, Methanol/Water/Hydrochloric acid (conc.), mobile phase VIII [2]: 0
